Our source for the IC50 values is patent US20240158393A1, “PYRIDONE COMPOUNDS AND METHODS OF USE” (Exelixis, Inc., priority 2021, published 2024).

The target of one experiment is T1, Human Met (Homo sapiens, UniProt P08581).
T1 construct: Human MET (residues 956-1390)
Put plainly: Human Met kinase assay (33P radiometric / HTRF KinEase). In kind it is biochemical. The following applies: protocols of Examples D-1 and/or D-2; read-out: c-Met IC50. Put shortly: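 Two formats gave IC50s by curve fitting. HTRF KinEase used MET residues 956-1390 with 1 μM biotin-peptide and 3.0 μM ATP (Km) for 40 min at room temperature, ten doses in 3% DMSO, 665/620 nm read. The 33P transfer assay used mutant Met R974-S1390 A1209G/V1290L (3.4 nM), 10 μM ATP, 250 μM peptide, pH 7.0, 40 min, nine doses from 1 μM.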

The target in the next experiment is T2, Human KDR (Homo sapiens, UniProt P35968).
T2 construct: Human KDR (residues K790-V1356, 55 nM); purchased Eurofins Pharma Discovery Services UK Limited (KinaseProfiler, B-1) and/or CarnaBio (B-2)
Put plainly: Human KDR kinase assay (33P radiometric / HTRF KinEase). Type of experiment: biochemical. The conditions noted are these: protocols of Examples B-1 and/or B-2. Put shortly: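 Radiometric: KDR K790-V1356 (55 nM), MOPS pH 7.0, myelin basic protein, 10 μM [γ-33P]ATP, 40 min at room temperature, filter-bound 33P counted; nine half-log doses, top 1 μM. HTRF: KDR 790-1356, 1 μM biotinylated peptide, ATP at Km (4.0 μM), 40 min, 10 doses. IC50 from logistic fits.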

T2 sequence (P35968 790-1356): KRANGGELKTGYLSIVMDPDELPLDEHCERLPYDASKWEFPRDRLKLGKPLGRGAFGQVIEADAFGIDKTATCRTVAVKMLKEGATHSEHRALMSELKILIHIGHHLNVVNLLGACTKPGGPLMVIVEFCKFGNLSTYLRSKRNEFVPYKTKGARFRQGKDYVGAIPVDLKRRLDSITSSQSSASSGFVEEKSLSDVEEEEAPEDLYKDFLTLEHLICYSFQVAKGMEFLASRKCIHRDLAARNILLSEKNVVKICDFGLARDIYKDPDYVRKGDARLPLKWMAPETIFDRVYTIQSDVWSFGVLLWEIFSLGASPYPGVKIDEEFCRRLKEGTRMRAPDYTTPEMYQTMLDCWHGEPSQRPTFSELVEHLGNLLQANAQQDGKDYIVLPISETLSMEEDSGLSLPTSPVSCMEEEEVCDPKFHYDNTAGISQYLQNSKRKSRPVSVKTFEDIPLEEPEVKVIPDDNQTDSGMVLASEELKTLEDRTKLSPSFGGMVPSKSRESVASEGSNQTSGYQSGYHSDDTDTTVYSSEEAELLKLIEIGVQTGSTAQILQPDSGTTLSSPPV
T1 sequence (P08581 974-1390 limits assumed): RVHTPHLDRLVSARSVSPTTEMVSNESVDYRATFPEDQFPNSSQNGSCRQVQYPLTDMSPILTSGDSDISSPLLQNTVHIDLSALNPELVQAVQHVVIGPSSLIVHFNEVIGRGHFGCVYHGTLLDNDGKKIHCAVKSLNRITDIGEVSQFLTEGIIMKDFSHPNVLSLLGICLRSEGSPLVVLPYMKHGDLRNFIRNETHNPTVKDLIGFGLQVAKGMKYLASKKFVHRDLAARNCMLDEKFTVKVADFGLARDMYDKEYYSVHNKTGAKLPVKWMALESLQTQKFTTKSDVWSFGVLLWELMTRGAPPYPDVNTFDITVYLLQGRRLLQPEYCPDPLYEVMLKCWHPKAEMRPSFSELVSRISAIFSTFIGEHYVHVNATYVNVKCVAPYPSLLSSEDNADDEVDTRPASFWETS

As for `COc1cc2nccc(Oc3ccc(NC(=O)c4c(C)cc(C)n(C5CCCC5)c4=O)cc3F)c2nc1OC` [Compound 15, 1-Cyclopentyl-N-[4-[(6,7-dimethoxy-1,5-naphthyridin-4-yl)oxy]-3-fluorophenyl]-4,6-dimethyl-2-oxopyridine-3-carboxamide], the IC50 at Human Met and at Human KDR was not above 100 nM in each case.
Take `COc1cc2nccc(Oc3ccc(NC(=O)c4cnc(C)c(C5=CCCC5)c4O)cc3)c2cc1OC` [Compound 16, 5-(Cyclopenten-1-yl)-N-[4-(6,7-dimethoxyquinolin-4-yl)oxyphenyl]-4-hydroxy-6-methylpyridine-3-carboxamide]: the IC50 at Human Met and against Human KDR was not above 100 nM each time.
`COc1cc2nccc(Oc3ccc(NC(=O)c4cnc(C)c(C5=CCOCC5)c4O)cc3)c2cc1OC` [Compound 17, 5-(3,6-Dihydro-2H-pyran-4-yl)-N-[4-(6,7-dimethoxyquinolin-4-yl)oxyphenyl]-4-hydroxy-6-methylpyridine-3-carboxamide]: the IC50 on Human Met and against Human KDR was not above 100 nM in each case.
Turning to `COc1cc2nccc(Oc3ccc(NC(=O)c4cnc(C)c(C5=CCCC5)c4O)cc3F)c2cc1OC` [Compound 18, 5-(Cyclopenten-1-yl)-N-[4-(6,7-dimethoxyquinolin-4-yl)oxy-3-fluorophenyl]-4-hydroxy-6-methylpyridine-3-carboxamide], the IC50 on Human Met and at Human KDR was not above 100 nM throughout.
As to `COc1cc2nccc(Oc3ccc(NC(=O)c4cnc(C)c(C5=CCOCC5)c4O)cc3F)c2cc1OC` [Compound 19, 5-(3,6-Dihydro-2H-pyran-4-yl)-N-[4-(6,7-dimethoxyquinolin-4-yl)oxy-3-fluorophenyl]-4-hydroxy-6-methylpyridine-3-carboxamide], the IC50 on Human Met and at Human KDR was not above 100 nM throughout.
On to `C=C(C)n1c(C)cc(C)c(C(=O)Nc2ccc(Oc3ccnc4cc(OC)c(OC)nc34)c(F)c2)c1=O` [Compound 20, N-[4-[(6,7-Dimethoxy-1,5-naphthyridin-4-yl)oxy]-3-fluorophenyl]-4,6-dimethyl-2-oxo-1-prop-1-en-2-ylpyridine-3-carboxamide], for which the IC50 at Human Met and against Human KDR was not above 100 nM in each case.
Regarding `C=C(C)n1c(C)cc(C)c(C(=O)Nc2ccc(Oc3ccnc4cc(OC)cnc34)c(F)c2)c1=O` [Compound 21, N-[3-Fluoro-4-[(7-methoxy-1,5-naphthyridin-4-yl)oxy]phenyl]-4,6-dimethyl-2-oxo-1-prop-1-en-2-ylpyridine-3-carboxamide], the IC50 on Human Met is not above 100 nM; against Human KDR, 100 to 300 nM.
The matching figures for `COc1cc2nccc(Oc3ccc(NC(=O)c4c(C)c(Br)c(C)n(C5CCCC5)c4=O)cc3F)c2nc1OC` [Compound 22, 5-Bromo-1-cyclopentyl-N-[4-[(6,7-dimethoxy-1,5-naphthyridin-4-yl)oxy]-3-fluorophenyl]-4,6-dimethyl-2-oxopyridine-3-carboxamide]: not above 100 nM and 100 to 300 nM.
Regarding `COc1cc2nccc(Oc3ccc(NC(=O)c4cnc(C)c(C5=CCCCC5)c4O)cc3F)c2cc1OC` [Compound 23, 5-(Cyclohexen-1-yl)-N-[4-(6,7-dimethoxyquinolin-4-yl)oxy-3-fluorophenyl]-4-hydroxy-6-methylpyridine-3-carboxamide], the IC50 at Human Met and at Human KDR was not above 100 nM in each case.
Take `COc1cc2nccc(Oc3ccc(NC(=O)c4cnc(C)c(C5=CCCCC5)c4O)cc3)c2cc1OC` [Compound 24, 5-(Cyclohexen-1-yl)-N-[4-(6,7-dimethoxyquinolin-4-yl)oxyphenyl]-4-hydroxy-6-methylpyridine-3-carboxamide]: the half-maximal inhibitory concentration (IC50) at Human Met and at Human KDR was not above 100 nM throughout.
As for `COc1cc2nccc(Oc3ccc(NC(=O)c4cnc(C)c(/C=C/C5CCCC5)c4O)cc3F)c2nc1OC` [Compound 25, 5-[(E)-2-Cyclopentylethenyl]-N-[4-[(6,7-dimethoxy-1,5-naphthyridin-4-yl)oxy]-3-fluorophenyl]-4-hydroxy-6-methylpyridine-3-carboxamide], the IC50 was more than 300 nM on Human Met and not above 100 nM at Human KDR.
The matching figures for `COc1cc2nccc(Oc3ccc(NC(=O)c4cnc(C)c(/C=C/C5CC5)c4O)cc3F)c2nc1OC` [Compound 26, 5-[(E)-2-Cyclopropylethenyl]-N-[4-[(6,7-dimethoxy-1,5-naphthyridin-4-yl)oxy]-3-fluorophenyl]-4-hydroxy-6-methylpyridine-3-carboxamide]: not above 100 nM and not above 100 nM.
Turning to `COc1cc2nccc(Oc3ccc(NC(=O)c4cnc(C)c(/C=C/C(C)(C)C)c4O)cc3F)c2nc1OC` [Compound 27, N-[4-[(6,7-Dimethoxy-1,5-naphthyridin-4-yl)oxy]-3-fluorophenyl]-5-[(E)-3,3-dimethylbut-1-enyl]-4-hydroxy-6-methylpyridine-3-carboxamide], the IC50 on Human Met and at Human KDR was not above 100 nM each time.
Take `COc1cc2nccc(Oc3ccc(NC(=O)c4cnc(C)c(/C=C/CC(C)C)c4O)cc3F)c2nc1OC` [Compound 28, N-[4-[(6,7-Dimethoxy-1,5-naphthyridin-4-yl)oxy]-3-fluorophenyl]-4-hydroxy-6-methyl-5-[(E)-4-methylpent-1-enyl]pyridine-3-carboxamide]: the IC50 is more than 300 nM on Human Met and not above 100 nM at Human KDR.
The matching figures for `COc1cc2nccc(Oc3ccc(NC(=O)c4cnc(C)c(/C=C/CC(C)C)c4O)cc3F)c2cc1OC` [Compound 29, N-[4-(6,7-Dimethoxyquinolin-4-yl)oxy-3-fluorophenyl]-4-hydroxy-6-methyl-5-[(E)-4-methylpent-1-enyl]pyridine-3-carboxamide]: not above 100 nM and not above 100 nM.
On the same counts, the results for `COc1cc2nccc(Oc3ccc(NC(=O)c4cnc(C)c(/C=C/C(C)(C)C)c4O)cc3F)c2cc1OC` [Compound 30, N-[4-(6,7-Dimethoxyquinolin-4-yl)oxy-3-fluorophenyl]-5-[(E)-3,3-dimethylbut-1-enyl]-4-hydroxy-6-methylpyridine-3-carboxamide] are not above 100 nM and not above 100 nM.
The matching figures for `COc1cc2nccc(Oc3ccc(NC(=O)c4c(C)nc(C)c(C(C)C)c4O)cc3F)c2nc1OC` [Compound 31, N-[4-[(6,7-Dimethoxy-1,5-naphthyridin-4-yl)oxy]-3-fluorophenyl]-4-hydroxy-2,6-dimethyl-5-propan-2-ylpyridine-3-carboxamide]: not above 100 nM and not above 100 nM.
For the molecule `COc1cnc2c(Oc3ccc(NC(=O)c4c(C)nc(C)c(C(C)C)c4O)cc3F)ccnc2c1` [Compound 32, N-[3-Fluoro-4-[(7-methoxy-1,5-naphthyridin-4-yl)oxy]phenyl]-4-hydroxy-2,6-dimethyl-5-propan-2-ylpyridine-3-carboxamide], the concentration for half-maximal inhibition (IC50) on Human Met and on Human KDR was not above 100 nM throughout.
In the case of `COCCOc1cc2nccc(Oc3ccc(NC(=O)c4cnc(C)c(C5=CCCC5)c4O)cc3F)c2nc1OC` [Compound 33, 5-(Cyclopenten-1-yl)-N-[3-fluoro-4-[[6-methoxy-7-(2-methoxyethoxy)-1,5-naphthyridin-4-yl]oxy]phenyl]-4-hydroxy-6-methylpyridine-3-carboxamide], the IC50 on Human Met and against Human KDR was not above 100 nM throughout.
Take `COCCOc1cc2nccc(Oc3ccc(NC(=O)c4cnc(C)c(C5=CCCCC5)c4O)cc3F)c2nc1OC` [Compound 34, 5-(Cyclohexen-1-yl)-N-[3-fluoro-4-[[6-methoxy-7-(2-methoxyethoxy)-1,5-naphthyridin-4-yl]oxy]phenyl]-4-hydroxy-6-methylpyridine-3-carboxamide]: the IC50 at Human Met and against Human KDR was not above 100 nM throughout.
For the molecule `COCCOc1cc2nccc(Oc3ccc(NC(=O)c4cnc(C)c(C5=CCOCC5)c4O)cc3F)c2nc1OC` [Compound 35, 5-(3,6-Dihydro-2H-pyran-4-yl)-N-[3-fluoro-4-[[6-methoxy-7-(2-methoxyethoxy)-1,5-naphthyridin-4-yl]oxy]phenyl]-4-hydroxy-6-methylpyridine-3-carboxamide], the IC50 on Human Met and against Human KDR was not above 100 nM each time.
With `COCCOc1cc2nccc(Oc3ccc(NC(=O)c4cnc(C)c(/C=C/C5CCCC5)c4O)cc3F)c2nc1OC` [Compound 36, 5-[(E)-2-Cyclopentylethenyl]-N-[3-fluoro-4-[[6-methoxy-7-(2-methoxyethoxy)-1,5-naphthyridin-4-yl]oxy]phenyl]-4-hydroxy-6-methylpyridine-3-carboxamide], the IC50 on Human Met and against Human KDR was not above 100 nM each time.
Turning to `COCCOc1cc2nccc(Oc3ccc(NC(=O)c4cnc(C)c(/C=C/C5CC5)c4O)cc3F)c2nc1OC` [Compound 37, 5-[(E)-2-Cyclopropylethenyl]-N-[3-fluoro-4-[[6-methoxy-7-(2-methoxyethoxy)-1,5-naphthyridin-4-yl]oxy]phenyl]-4-hydroxy-6-methylpyridine-3-carboxamide], the IC50 on Human Met and against Human KDR was not above 100 nM in each case.
As for `COc1cc2nccc(Oc3ccc(NC(=O)c4c(C)ccn(C(C)C)c4=O)cc3F)c2nc1OC` [Compound 38, N-[4-[(6,7-Dimethoxy-1,5-naphthyridin-4-yl)oxy]-3-fluorophenyl]-4-methyl-2-oxo-1-propan-2-ylpyridine-3-carboxamide], the IC50 on Human Met is more than 300 nM; against Human KDR, 100 to 300 nM.
